From PubChem BioAssay AID2060905 (Molecular Pharmacology Branch, DTP, NCI, 2025)

Tested on: 282377-053-R-J1-PDC complex spheroid viability
Assay: Anticancer human tumor 282377-053-R-J1-PDC patient-derived colon adenocarcinoma cell line growth inhibition [RAS]
Settings: for IC50: curve of first compound; for viability, T/C: stronger effect = lower value
In short: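 Tumour cells grown as complex spheroids with HUVEC endothelial cells and mesenchymal stem cells, treated with RAS pathway inhibitor combinations. Each agent spans half-log steps from near clinical Cmax, or 10 microM where Cmax is unknown.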

[1] = second compound 0.00316 µM, first compound 0.0316 µM
[2] = second compound 0.00316 µM, first compound 0.1 µM
[3] = second compound 0.00316 µM, first compound 0.316 µM
[4] = second compound 0.00316 µM, first compound 1 µM
[5] = second compound 0.00316 µM, first compound 3.16 µM
[6] = second compound 0.00316 µM, first compound 10 µM
[7] = second compound 0.01 µM, first compound 0.0316 µM
[8] = second compound 0.01 µM, first compound 0.1 µM
[9] = second compound 0.01 µM, first compound 0.316 µM
[10] = second compound 0.01 µM, first compound 1 µM
[11] = second compound 0.01 µM, first compound 3.16 µM
[12] = second compound 0.01 µM, first compound 10 µM
[13] = second compound 0.0316 µM, first compound 0.0316 µM
[14] = second compound 0.0316 µM, first compound 0.1 µM
[15] = second compound 0.0316 µM, first compound 0.316 µM
[16] = second compound 0.0316 µM, first compound 1 µM
[17] = second compound 0.0316 µM, first compound 3.16 µM
[18] = second compound 0.0316 µM, first compound 10 µM
[19] = second compound 0.1 µM, first compound 0.0316 µM
[20] = second compound 0.1 µM, first compound 0.1 µM
[21] = second compound 0.1 µM, first compound 0.316 µM
[22] = second compound 0.1 µM, first compound 1 µM
[23] = second compound 0.1 µM, first compound 3.16 µM
[24] = second compound 0.1 µM, first compound 10 µM
[25] = second compound 0.316 µM, first compound 0.0316 µM
[26] = second compound 0.316 µM, first compound 0.1 µM
[27] = second compound 0.316 µM, first compound 0.316 µM
[28] = second compound 0.316 µM, first compound 1 µM
[29] = second compound 0.316 µM, first compound 3.16 µM
[30] = second compound 0.316 µM, first compound 10 µM
[31] = second compound 1 µM, first compound 0.0316 µM
[32] = second compound 1 µM, first compound 0.1 µM
[33] = second compound 1 µM, first compound 0.316 µM
[34] = second compound 1 µM, first compound 1 µM
[35] = second compound 1 µM, first compound 3.16 µM
[36] = second compound 1 µM, first compound 10 µM
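Also: spheroids exposed to agents for seven days before readout.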
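For viability, T/C in this document: luminescence viability as percent of DMSO vehicle control wells.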

Q: With `CC(Nc1ccc2c(c1)OCCn1cc(N3C(=O)OCC3C(F)F)nc1-2)C(N)=O` (stereo unspecified) + C=CC(=O)N1CCN(c2nc(OCC3CCCN3C)nc3c(F)c(-c4nc(N)cc(C)c4C(F)(F)F)c(Cl)cc23)C(C)C1 as the compound, how does the IC50 (second compound 0.00316 µM) read?
A: > 10 µM

Q: And the IC50 (second compound 0.01 µM)?
A: > 10 µM

Q: What about the IC50 (second compound 0.0316 µM) of the same compound?
A: > 10 µM

Q: What about the IC50 (second compound 0.1 µM) of the same compound?
A: > 10 µM

Q: And the IC50 (second compound 0.316 µM)?
A: > 10 µM

Q: And the IC50 (second compound 1 µM)?
A: > 10 µM

Q: And the viability, T/C [1]?
A: 100%

Q: And the viability, T/C [2]?
A: 93.8%

Q: What about the viability, T/C [3] of the same compound?
A: 94.3%

Q: And the viability, T/C [4]?
A: 82.6%

Q: And the viability, T/C [5]?
A: 78.9%

Q: What about the viability, T/C [6] of the same compound?
A: 70.1%

Q: And the viability, T/C [7]?
A: 105%

Q: And the viability, T/C [8]?
A: 89.1%

Q: What about the viability, T/C [9] of the same compound?
A: 79.6%

Q: And the viability, T/C [10]?
A: 82.4%

Q: What about the viability, T/C [11] of the same compound?
A: 89.9%

Q: And the viability, T/C [12]?
A: 81.5%

Q: And the viability, T/C [13]?
A: 91.1%

Q: What about the viability, T/C [14] of the same compound?
A: 86.9%

Q: And the viability, T/C [15]?
A: 87.1%

Q: What about the viability, T/C [16] of the same compound?
A: 88.9%

Q: What about the viability, T/C [17] of the same compound?
A: 77.6%

Q: What about the viability, T/C [18] of the same compound?
A: 86.1%

Q: And the viability, T/C [19]?
A: 101%

Q: What about the viability, T/C [20] of the same compound?
A: 94.1%

Q: What about the viability, T/C [21] of the same compound?
A: 95.5%

Q: What about the viability, T/C [22] of the same compound?
A: 82.2%

Q: And the viability, T/C [23]?
A: 102%

Q: And the viability, T/C [24]?
A: 76.7%

Q: And the viability, T/C [25]?
A: 104%

Q: What about the viability, T/C [26] of the same compound?
A: 92.8%

Q: And the viability, T/C [27]?
A: 100%

Q: And the viability, T/C [28]?
A: 94.3%

Q: What about the viability, T/C [29] of the same compound?
A: 78.2%

Q: And the viability, T/C [30]?
A: 78.4%

Q: And the viability, T/C [31]?
A: 105%

Q: What about the viability, T/C [32] of the same compound?
A: 102%

Q: What about the viability, T/C [33] of the same compound?
A: 92%

Q: What about the viability, T/C [34] of the same compound?
A: 93.8%

Q: And the viability, T/C [35]?
A: 76%

Q: And the viability, T/C [36]?
A: 83.8%

Q: Which results are given for `CCN1CCN(Cc2ccc(Nc3ncc(F)c(-c4cc(F)c5nc(C)n(C(C)C)c5c4)n3)nc2)CC1` + C=CC(=O)N1CCN(c2nc(OCC3CCCN3C)nc3c(F)c(-c4nc(N)cc(C)c4C(F)(F)F)c(Cl)cc23)C(C)C1?
A: IC50 (second compound 0.00316 µM): > 1 µM; IC50 (second compound 0.01 µM): > 1 µM; IC50 (second compound 0.0316 µM): > 1 µM; IC50 (second compound 0.1 µM): > 1 µM; IC50 (second compound 0.316 µM): > 1 µM; IC50 (second compound 1 µM): > 1 µM; viability, T/C (second compound 0.00316 µM, first compound 0.00316 µM): 114%; viability, T/C (second compound 0.00316 µM, first compound 0.01 µM): 106%; viability, T/C [1]: 102%; viability, T/C [2]: 125%; viability, T/C [3]: 131%; viability, T/C [4]: 134%; viability, T/C (second compound 0.01 µM, first compound 0.00316 µM): 104%; viability, T/C (second compound 0.01 µM, first compound 0.01 µM): 106%; viability, T/C [7]: 91.4%; viability, T/C [8]: 112%; viability, T/C [9]: 146%; viability, T/C [10]: 131%; viability, T/C (second compound 0.0316 µM, first compound 0.00316 µM): 117%; viability, T/C (second compound 0.0316 µM, first compound 0.01 µM): 87.1%; viability, T/C [13]: 100%; viability, T/C [14]: 121%; viability, T/C [15]: 141%; viability, T/C [16]: 132%; viability, T/C (second compound 0.1 µM, first compound 0.00316 µM): 97.1%; viability, T/C (second compound 0.1 µM, first compound 0.01 µM): 108%; viability, T/C [19]: 100%; viability, T/C [20]: 104%; viability, T/C [21]: 106%; viability, T/C [22]: 135%; viability, T/C (second compound 0.316 µM, first compound 0.00316 µM): 85.5%; viability, T/C (second compound 0.316 µM, first compound 0.01 µM): 115%; viability, T/C [25]: 122%; viability, T/C [26]: 99.8%; viability, T/C [27]: 126%; viability, T/C [28]: 126%; viability, T/C (second compound 1 µM, first compound 0.00316 µM): 109%; viability, T/C (second compound 1 µM, first compound 0.01 µM): 104%; viability, T/C [31]: 121%; viability, T/C [32]: 113%; viability, T/C [33]: 138%; viability, T/C [34]: 134%

Q: Which results are given for `C[C@@H](NC(=O)c1ncnc(N)c1Cl)c1ncc(C(=O)Nc2cc(C(F)(F)F)c(Cl)cn2)s1` + C=CC(=O)N1CCN(c2nc(OCC3CCCN3C)nc3c(F)c(-c4nc(N)cc(C)c4C(F)(F)F)c(Cl)cc23)C(C)C1?
A: IC50 (second compound 0.00316 µM): > 10 µM; IC50 (second compound 0.01 µM): > 10 µM; IC50 (second compound 0.0316 µM): > 10 µM; IC50 (second compound 0.1 µM): > 10 µM; IC50 (second compound 0.316 µM): > 10 µM; IC50 (second compound 1 µM): > 10 µM; viability, T/C [1]: 99%; viability, T/C [2]: 101%; viability, T/C [3]: 95.4%; viability, T/C [4]: 88.4%; viability, T/C [5]: 69.5%; viability, T/C [6]: 66.1%; viability, T/C [7]: 84.1%; viability, T/C [8]: 105%; viability, T/C [9]: 98%; viability, T/C [10]: 80.7%; viability, T/C [11]: 82.2%; viability, T/C [12]: 76.4%; viability, T/C [13]: 84.9%; viability, T/C [14]: 78.4%; viability, T/C [15]: 89.4%; viability, T/C [16]: 84.7%; viability, T/C [17]: 80.9%; viability, T/C [18]: 57.6%; viability, T/C [19]: 106%; viability, T/C [20]: 98.7%; viability, T/C [21]: 99.9%; viability, T/C [22]: 92.3%; viability, T/C [23]: 66%; viability, T/C [24]: 66.1%; viability, T/C [25]: 92.5%; viability, T/C [26]: 118%; viability, T/C [27]: 98.1%; viability, T/C [28]: 81.6%; viability, T/C [29]: 78.2%; viability, T/C [30]: 92.3%; viability, T/C [31]: 104%; viability, T/C [32]: 90.3%; viability, T/C [33]: 122%; viability, T/C [34]: 76.5%; viability, T/C [35]: 85%; viability, T/C [36]: 82.5%
